These are literature values, as cited in US20220062479A1, “Disinfection Bomb” (priority 2020, published 2022).

Data set [1] has as its system Pseudomonas aeruginosa. To be noted: it has been shown.
Data set [2] concerns E. coli. Conditions: it has been shown.
The test system of data set [3] is Staphylococcus aureus. To be noted: by way of background.
Data set [4] concerns Streptococcus pyogenes. Conditions: by way of background.

For `CCO` [ethanol], the “contact time that allows the ethanol to kill Pseudomonas aeruginosa” value in data set [1] was 10 s. In data set [2], the “contact time that allows the ethanol to kill E. coli” value is 10 s. Moreover, the “contact time to kill Staphylococcus aureus” value in data set [3] is listed as “at least 10 seconds”. In addition, in data set [4], the “contact time to kill Streptococcus pyogenes” value is listed as “at least 10 seconds”.
